From patent US20250304537A1 (Repare Therapeutics Inc., priority 2022, published 2025)
Like-named read-outs stand apart in the source and are kept apart here.

Assays:
[1] = test system: PKMYT1 (CDK1 pThr14) in FUOV1 cells; experiment: PKMYT1 cell-based activity assay, CDK1 pThr14 AlphaLISA in FUOV1 cells; details: read-out: FUOV-1 CDK1 pThr14 IC50
Method in brief: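 IC50 was derived from AlphaLISA signal (excitation 680 nm, emission 615 nm) for phospho-Thr14 CDK1 in lysates. The detection antibodies were rabbit anti-pThr14 and mouse anti-total CDK1, each at 5 nM. FUOV1 ovarian cells were exposed to compound for 2 hours before lysis.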

[2] = molecular target: recombinant human Myt1 (full length PKMYT1) (Homo sapiens (Human), UniProt Q99640); experiment: Recombinant human Myt1 kinase assay (ADP-Glo); format: biochemical; details: 10 μM ATP
Sequence of recombinant human Myt1 (full length PKMYT1) (Q99640 whole entry): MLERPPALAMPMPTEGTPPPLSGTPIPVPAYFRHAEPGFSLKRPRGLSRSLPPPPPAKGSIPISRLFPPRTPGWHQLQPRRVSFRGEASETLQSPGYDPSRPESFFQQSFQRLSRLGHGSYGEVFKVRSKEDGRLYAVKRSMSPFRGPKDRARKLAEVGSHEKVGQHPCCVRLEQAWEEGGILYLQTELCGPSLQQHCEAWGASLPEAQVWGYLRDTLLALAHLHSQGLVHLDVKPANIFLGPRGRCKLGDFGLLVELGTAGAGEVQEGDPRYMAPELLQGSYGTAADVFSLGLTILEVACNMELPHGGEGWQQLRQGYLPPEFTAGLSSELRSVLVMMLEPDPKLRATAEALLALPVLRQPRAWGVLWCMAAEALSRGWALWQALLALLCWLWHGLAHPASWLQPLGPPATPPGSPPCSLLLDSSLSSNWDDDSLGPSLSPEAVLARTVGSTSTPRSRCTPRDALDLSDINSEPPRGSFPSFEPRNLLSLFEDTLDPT
Method in brief: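 ADP-Glo luminescence measured ATP hydrolysis by recombinant full-length PKMYT1 (18 nM) after 60 min at 30 °C with 10 μM ATP. Compounds in 0.5% DMSO were added to the enzyme 15 min before ATP, at 22 °C, in HEPES/MgCl2/MnCl2 buffer. IC50 and percent maximal inhibition were derived.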

Q: How did the IC50 ([1]; 2 h, 2 hours with compound) turn out when `Cc1ccc2[nH]ncc2c1-c1nc(-c2cccnc2Nc2nccn2C2CC2)nc(C(N)=O)c1N` [Compound 902] was run?
A: The IC50 was over 10 µM.

Q: And the IC50 [2]?
A: The IC50 was 0.619 µM.

Q: What does the source list for `Cc1ccc(O)c(C)c1-c1cc(-c2ccccn2)cc(C(N)=O)c1N` [Compound 80]?
A: IC50 ([1]; 2 h, 2 h incubation): 0.259 µM; IC50 [2]: 0.008 µM

Q: Which results are given for `Cc1ccc2[nH]ncc2c1-c1cc(-c2ccnc(OC3CNC3)n2)nc(C(N)=O)c1N` [Compound 194]?
A: IC50 ([1]; 2 h, 2 h incubation): 0.476 µM; IC50 [2]: 0.01 µM

Q: Which results are given for `Cc1cccc(-c2nc(C(N)=O)c(N)c(-c3c(C)ccc4[nH]ncc34)n2)c1` [Compound 101]?
A: IC50 ([1]; 2 h, 2 h incubation): 0.57 µM; IC50 [2]: 0.026 µM

Q: Which results are given for `Cc1ccc2[nH]ncc2c1-c1nc(-c2cccc(F)c2NCC(F)F)nc(C(N)=O)c1N` [Compound 435]?
A: IC50 ([1]; 2 h, 2 h compound incubation): 0.136 µM; IC50 [2]: 0.004 µM

Q: Which IC50 ([1]; 2 h, 2 h compound incubation) does the source give for `Cc1ccc2[nH]ncc2c1-c1nc(-c2cccc3c2NC(=O)C3(F)F)nc(C(N)=O)c1N` [Compound 395] here?
A: Its IC50 is 0.78 µM.

Q: And the IC50 [2]?
A: The IC50 was 0.017 µM.

Q: Which IC50 ([1]; 2 h incubation) does the source give for `Cc1ccc(O)c(C)c1-c1cc(-c2ccncn2)nc(C(N)=O)c1N` [Compound 89] here?
A: Its IC50 is 0.016 µM.

Q: What about the IC50 [2] of the same molecule?
A: The IC50 was 0.003 µM.

Q: How did the IC50 ([1]; 2 h, 2 h compound incubation) turn out when `Cc1ccc2[nH]ncc2c1-c1nc(-c2cnccc2NC(=O)OC(C)(C)C)nc(C(N)=O)c1N` [Compound 465] was run?
A: Its IC50 is 0.233 µM.

Q: And the IC50 [2]?
A: Its IC50 is 0.005 µM.

Q: For `Cc1ccc2[nH]ncc2c1-c1cc(-c2ccnc(NC3CC3)n2)nc(C(N)=O)c1N` [Compound 163], which IC50 ([1]; 2 h, 2 h incubation) is on record?
A: Its IC50 is 0.436 µM.

Q: What about the IC50 [2] of the same molecule?
A: The IC50 was 0.011 µM.

Q: With `Cc1ccc2[nH]ncc2c1-c1nc(-c2cccnc2N[C@@H]2CCOCC2(C)C)nc(C(N)=O)c1N` [Compound 829] as the molecule, how does the IC50 ([1]; 2 h, 2 hours with compound) read?
A: The IC50 was 0.01 µM.

Q: And the IC50 [2]?
A: Its IC50 is under 0.003 µM.

Q: Which IC50 ([1]; 2 h, 2 h compound incubation) does the source give for `Cc1ccc2[nH]ncc2c1-c1nc(-c2ccccc2NC(C)C)nc(C(N)=O)c1N` [Compound 419] here?
A: The IC50 was 0.049 µM.

Q: What about the IC50 [2] of the same molecule?
A: Its IC50 is 0.004 µM.

Q: What does the source list for `Cc1ccc2[nH]ncc2c1-c1nc(-c2cc(C(F)(F)F)ccc2NC(=O)C2(C)CC2)nc(C(N)=O)c1N` [Compound 445]?
A: IC50 ([1]; 2 h, 2 h compound incubation): 1.03 µM; IC50 [2]: 0.038 µM

Q: `COC[C@@H](C)Oc1nccc(-c2cc(-c3c(C)ccc4[nH]ncc34)c(N)c(C(N)=O)n2)n1` [Compound 204] was tested. Which IC50 ([1]; 2 h, 2 h incubation) did it give?
A: Its IC50 is 0.205 µM.

Q: And the IC50 [2]?
A: Its IC50 is 0.006 µM.

Q: For `Cc1ccc2[nH]ncc2c1-c1cc(-c2ccnc(OCC(F)(F)F)n2)nc(C(N)=O)c1N` [Compound 159], which IC50 ([1]; 2 h incubation) is on record?
A: Its IC50 is 0.268 µM.

Q: And the IC50 [2]?
A: Its IC50 is 0.006 µM.

Q: Which results are given for `CC1(C(=O)Nc2ccccc2-c2nc(C(N)=O)c(N)c(-c3c(Cl)ccc4[nH]ncc34)n2)CC1` [Compound 410]?
A: IC50 ([1]; 2 h, 2 h compound incubation): 0.009 µM; IC50 [2]: 0.004 µM

Q: Which IC50 ([1]; 2 h, 2 h compound incubation) does the source give for `Cc1ccc(-c2nc(C(N)=O)c(N)c(-c3c(C)ccc4[nH]ncc34)n2)c(NC(=O)C2(C)CC2)c1` [Compound 433] here?
A: Its IC50 is 0.013 µM.

Q: What about the IC50 [2] of the same molecule?
A: Its IC50 is 0.005 µM.

Q: For `Cc1ccc2[nH]ncc2c1-c1cc(-c2ccnc(N)c2)nc(C(N)=O)c1N` [Compound 189], which IC50 ([1]; 2 h, 2 h incubation) is on record?
A: Its IC50 is 1.22 µM.

Q: What about the IC50 [2] of the same molecule?
A: The IC50 was 0.021 µM.

Q: Which IC50 ([1]; 2 h, 2 h incubation) does the source give for `Cc1nc2cccc(-c3nc(C(N)=O)c(N)c(-c4c(C)ccc5[nH]ncc45)n3)c2s1` [Compound 389] here?
A: Its IC50 is 0.433 µM.

Q: What about the IC50 [2] of the same molecule?
A: The IC50 was 0.008 µM.

Q: With `Cc1ccc2[nH]ncc2c1-c1cc(-c2ccnc(OCc3ncccn3)n2)nc(C(N)=O)c1N` [Compound 235] as the molecule, how does the IC50 ([1]; 2 h, 2 h incubation) read?
A: The IC50 was 0.039 µM.

Q: What about the IC50 [2] of the same molecule?
A: Its IC50 is 0.007 µM.

Q: With `COC1(C(=O)Nc2ccccc2-c2nc(C(N)=O)c(N)c(-c3c(C)ccc4[nH]ncc34)n2)CC1` [Compound 432] as the molecule, how does the IC50 ([1]; 2 h, 2 h compound incubation) read?
A: Its IC50 is 0.105 µM.

Q: What about the IC50 [2] of the same molecule?
A: The IC50 was 0.005 µM.

Q: How did the IC50 ([1]; 2 h, 2 h incubation) turn out when `Cc1ccc2[nH]ncc2c1-c1cc(-c2ccnc(OCc3ccccn3)n2)nc(C(N)=O)c1N` [Compound 229] was run?
A: Its IC50 is 0.134 µM.

Q: And the IC50 [2]?
A: The IC50 was 0.004 µM.

Q: Which results are given for `COC(COc1cccc(-c2cc(-c3c(C)ccc4[nH]ncc34)c(N)c(C(N)=O)n2)n1)C1CC1` (stereo not drawn) [Compound 344]?
A: IC50 ([1]; 2 h, 2 h incubation): 0.983 µM; IC50 [2]: 0.007 µM

Q: Which results are given for `Cc1ccc2[nH]ncc2c1-c1cc(-c2cccc(OCc3cccnc3)n2)nc(C(N)=O)c1N` [Compound 179]?
A: IC50 ([1]; 2 h, 2 h incubation): 0.423 µM; IC50 [2]: 0.007 µM

Q: `Cc1ccc2[nH]ncc2c1-c1nc(-c2nccs2)nc(C(N)=O)c1N` [Compound 108] was tested. Which IC50 ([1]; 2 h, 2 h incubation) did it give?
A: Its IC50 is 7.4 µM.

Q: And the IC50 [2]?
A: The IC50 was 0.079 µM.
